How the values were obtained:
MAP3K5 = target: T1, MAP3K5 (Homo sapiens, UniProt Q99683); assay: Proqinase Kinase profiling; type: biochemical; details: read-out: % inhibition at 100nM
T1 construct: purchased DiscoverX

FLT3 = target: T2, FLT3 (Homo sapiens, UniProt P36888); assay: Proqinase Kinase profiling; type: biochemical; details: read-out: % inhibition at 100nM
T2 construct: purchased DiscoverX

FGFR1 = target: T3, FGFR1 (Homo sapiens, UniProt P11362); assay: Proqinase Kinase profiling; type: biochemical; details: read-out: % inhibition at 100nM
T3 construct: purchased DiscoverX

AURKA = target: T4, AURKA (Homo sapiens, UniProt O14965); assay: Proqinase Kinase profiling; type: biochemical; details: read-out: % inhibition at 100nM
T4 construct: purchased DiscoverX

EGFR_G719S = target: T5, EGFR_G719S (Homo sapiens, UniProt P00533, G719S); assay: Proqinase Kinase profiling; type: biochemical; details: read-out: % inhibition at 100nM
T5 construct: purchased DiscoverX

FLT3_D835Y = target: T6, FLT3_D835Y (Homo sapiens, UniProt P36888, D835Y); assay: Proqinase Kinase profiling; type: biochemical; details: read-out: % inhibition at 100nM
T6 construct: purchased DiscoverX

MINK1 = target: T7, MINK1 (Homo sapiens, UniProt Q8N4C8); assay: Proqinase Kinase profiling; type: biochemical; details: read-out: % inhibition at 100nM
T7 construct: purchased DiscoverX

WNK3 = target: T8, WNK3 (Homo sapiens, UniProt Q9BYP7); assay: Proqinase Kinase profiling; type: biochemical; details: read-out: % inhibition at 100nM
T8 construct: purchased DiscoverX

ALK_F1174L = target: T9, ALK_F1174L (Homo sapiens, UniProt Q9UM73, F1174L); assay: Proqinase Kinase profiling; type: biochemical; details: read-out: % inhibition at 100nM
T9 construct: purchased DiscoverX

ALK4 = target: T10, ALK4 (Homo sapiens, UniProt P36896); assay: DiscoverX Kd determination; type: binding
T10 construct: T7 phage fusion (or DNA tag for qPCR if made in HEK-293); purchased DiscoverX; host or cells: E. coli (T7 phage) or HEK-293
Description: (§1) DiscoverX Kd determination: For most assays, kinase-tagged T7 phage strains were prepared in an E. coli host derived from the BL21 strain. E. coli were grown to log-phase and infected with T7 phage and incubated with shaking at 32°C until lysis. The lysates were centrifuged and filtered to remove cell debris. The remaining kinases were produced in HEK-293 cells and subsequently tagged with DNA for qPCR detection. […] The liganded beads were blocked with excess biotin and washed with blocking buffer (SeaBlock (Pierce), 1% BSA, 0.05% Tween 20, 1 mM DTT) to remove unbound ligand and to reduce non-specific binding. […] Kds were determined using an 11-point 3-fold compound dilution series with three DMSO control points. […] The compounds were then diluted directly into the assays such that the final concentration of DMSO was 0.9%. All reactions performed in polypropylene 384-well plate. Each was a final volume of 0.02 ml. […] The kinase concentration in the eluates was measured by qPCR. An 11-point 3-fold serial dilution of each test compound was prepared in 100% DMSO at 100x final test concentration and subsequently diluted to 1x in the assay (final DMSO concentration = 1%). Most Kds were determined using a compound top concentration = 30.000 nM. […] Binding constants (Kds) were calculated with a standard dose-response curve using the Hill equation: Response = Background + Signal – Background 1 + (KdHill Slope / DoseHill Slope). The Hill Slope was set to -1. Curves were fitted using a non-linear least square fit with the Levenberg-Marquardt algorithm.

ALK1 = target: T11, ALK1 (Homo sapiens, UniProt P37023); assay: DiscoverX Kd determination; type: binding
T11 construct: T7 phage fusion (or DNA tag for qPCR if made in HEK-293); purchased DiscoverX; host or cells: E. coli (T7 phage) or HEK-293
Description: as §1

ALK5 = target: T12, ALK5 (Homo sapiens, UniProt P36897); assay: DiscoverX Kd determination; type: binding
T12 construct: T7 phage fusion (or DNA tag for qPCR if made in HEK-293); purchased DiscoverX; host or cells: E. coli (T7 phage) or HEK-293
Description: as §1

ALK3 = target: T13, ALK3 (Homo sapiens, UniProt P36894); assay: DiscoverX Kd determination; type: binding
T13 construct: T7 phage fusion (or DNA tag for qPCR if made in HEK-293); purchased DiscoverX; host or cells: E. coli (T7 phage) or HEK-293
Description: as §1

ALK2 = target: T14, ALK2 (Homo sapiens, UniProt Q04771); assay: DiscoverX Kd determination; type: binding
T14 construct: T7 phage fusion (or DNA tag for qPCR if made in HEK-293); purchased DiscoverX; host or cells: E. coli (T7 phage) or HEK-293
Description: as §1

MAP3K8 = target: T15, MAP3K8 (Homo sapiens, UniProt P41279); assay: Proqinase Kinase profiling; type: biochemical; details: read-out: % inhibition at 100nM
T15 construct: purchased DiscoverX

PRKCB1_II = target: T16, PRKCB1_II (Homo sapiens, UniProt P05771); assay: Proqinase Kinase profiling; type: biochemical; details: read-out: % inhibition at 100nM
T16 construct: purchased DiscoverX

PDGFRA_T674I = target: T17, PDGFRA_T674I (Homo sapiens, UniProt P16234, T674I); assay: Proqinase Kinase profiling; type: biochemical; details: read-out: % inhibition at 100nM
T17 construct: purchased DiscoverX

PRKCI = target: T18, PRKCI (Homo sapiens, UniProt P41743); assay: Proqinase Kinase profiling; type: biochemical; details: read-out: % inhibition at 100nM
T18 construct: purchased DiscoverX

FER = target: T19, FER (Homo sapiens, UniProt P16591); assay: Proqinase Kinase profiling; type: biochemical; details: read-out: % inhibition at 100nM
T19 construct: purchased DiscoverX

KDR = target: T20, KDR (Homo sapiens, UniProt P35968); assay: Proqinase Kinase profiling; type: biochemical; details: read-out: % inhibition at 100nM
T20 construct: purchased DiscoverX

IRAK1 = target: T21, IRAK1 (Homo sapiens, UniProt P51617); assay: Proqinase Kinase profiling; type: biochemical; details: read-out: % inhibition at 100nM
T21 construct: purchased DiscoverX

MET = target: T22, MET (Homo sapiens, UniProt P08581); assay: Proqinase Kinase profiling; type: biochemical; details: read-out: % inhibition at 100nM
T22 construct: purchased DiscoverX

EIF2AK1 = target: T23, EIF2AK1 (Homo sapiens, UniProt Q9BQI3); assay: Proqinase Kinase profiling; type: biochemical; details: read-out: % inhibition at 100nM
T23 construct: purchased DiscoverX

NEK2 = target: T24, NEK2 (Homo sapiens, UniProt P51955); assay: Proqinase Kinase profiling; type: biochemical; details: read-out: % inhibition at 100nM
T24 construct: purchased DiscoverX

MAP3K11 = target: T25, MAP3K11 (Homo sapiens, UniProt Q16584); assay: Proqinase Kinase profiling; type: biochemical; details: read-out: % inhibition at 100nM
T25 construct: purchased DiscoverX

GRK5 = target: T26, GRK5 (Homo sapiens, UniProt P34947); assay: Proqinase Kinase profiling; type: biochemical; details: read-out: % inhibition at 100nM
T26 construct: purchased DiscoverX

STK17A = target: T27, STK17A (Homo sapiens, UniProt Q9UEE5); assay: Proqinase Kinase profiling; type: biochemical; details: read-out: % inhibition at 100nM
T27 construct: purchased DiscoverX

RIPK2 = target: T28, RIPK2 (Homo sapiens, UniProt O43353); assay: Proqinase Kinase profiling; type: biochemical; details: read-out: % inhibition at 100nM
T28 construct: purchased DiscoverX

PAK6 = target: T29, PAK6 (Homo sapiens, UniProt Q9NQU5); assay: Proqinase Kinase profiling; type: biochemical; details: read-out: % inhibition at 100nM
T29 construct: purchased DiscoverX

CDK2_cyclinE = target: T30, CDK2_cyclinE (Homo sapiens, UniProt P24941); assay: Proqinase Kinase profiling; type: biochemical; details: read-out: % inhibition at 100nM
T30 construct: purchased DiscoverX

MAP3K14 = target: T31, MAP3K14 (Homo sapiens, UniProt Q99558); assay: Proqinase Kinase profiling; type: biochemical; details: read-out: % inhibition at 100nM
T31 construct: purchased DiscoverX

TTK = target: T32, TTK (Homo sapiens, UniProt P33981); assay: Proqinase Kinase profiling; type: biochemical; details: read-out: % inhibition at 100nM
T32 construct: purchased DiscoverX

CSK = target: T33, CSK (Homo sapiens, UniProt P41240); assay: Proqinase Kinase profiling; type: biochemical; details: read-out: % inhibition at 100nM
T33 construct: purchased DiscoverX

MARK3 = target: T34, MARK3 (Homo sapiens, UniProt P27448); assay: Proqinase Kinase profiling; type: biochemical; details: read-out: % inhibition at 100nM
T34 construct: purchased DiscoverX

T16 sequence (P05771 1-673 isoform P05771-2): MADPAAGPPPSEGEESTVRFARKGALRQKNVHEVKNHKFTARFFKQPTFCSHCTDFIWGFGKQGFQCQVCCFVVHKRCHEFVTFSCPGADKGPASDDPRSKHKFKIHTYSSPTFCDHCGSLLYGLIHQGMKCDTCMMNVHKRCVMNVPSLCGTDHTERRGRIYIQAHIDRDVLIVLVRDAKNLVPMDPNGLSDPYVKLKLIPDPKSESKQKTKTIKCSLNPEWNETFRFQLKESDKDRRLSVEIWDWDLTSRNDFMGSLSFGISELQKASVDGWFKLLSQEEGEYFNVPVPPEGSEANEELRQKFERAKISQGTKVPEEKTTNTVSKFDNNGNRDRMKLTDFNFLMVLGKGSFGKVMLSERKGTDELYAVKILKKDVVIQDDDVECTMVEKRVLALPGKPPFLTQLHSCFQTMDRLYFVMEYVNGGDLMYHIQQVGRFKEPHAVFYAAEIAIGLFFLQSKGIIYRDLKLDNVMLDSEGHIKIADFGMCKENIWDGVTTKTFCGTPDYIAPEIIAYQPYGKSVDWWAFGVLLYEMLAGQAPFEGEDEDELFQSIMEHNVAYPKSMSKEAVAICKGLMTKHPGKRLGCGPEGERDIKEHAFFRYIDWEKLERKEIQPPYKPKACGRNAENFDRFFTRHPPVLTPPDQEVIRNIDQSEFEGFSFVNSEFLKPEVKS
T11 sequence (P37023 22-503): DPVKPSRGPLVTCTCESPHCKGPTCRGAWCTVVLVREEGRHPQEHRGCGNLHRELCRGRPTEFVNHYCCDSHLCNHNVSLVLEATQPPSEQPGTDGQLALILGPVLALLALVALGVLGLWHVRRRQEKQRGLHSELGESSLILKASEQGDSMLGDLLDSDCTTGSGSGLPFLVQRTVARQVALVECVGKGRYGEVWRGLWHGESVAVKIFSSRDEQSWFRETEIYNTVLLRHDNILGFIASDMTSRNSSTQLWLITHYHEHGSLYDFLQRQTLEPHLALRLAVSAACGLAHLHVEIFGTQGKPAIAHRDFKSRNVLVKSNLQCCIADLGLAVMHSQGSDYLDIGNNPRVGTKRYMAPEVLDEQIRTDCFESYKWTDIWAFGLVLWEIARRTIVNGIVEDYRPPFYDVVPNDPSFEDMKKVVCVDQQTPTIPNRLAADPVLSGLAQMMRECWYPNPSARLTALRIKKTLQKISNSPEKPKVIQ
T15 sequence (P41279 whole entry): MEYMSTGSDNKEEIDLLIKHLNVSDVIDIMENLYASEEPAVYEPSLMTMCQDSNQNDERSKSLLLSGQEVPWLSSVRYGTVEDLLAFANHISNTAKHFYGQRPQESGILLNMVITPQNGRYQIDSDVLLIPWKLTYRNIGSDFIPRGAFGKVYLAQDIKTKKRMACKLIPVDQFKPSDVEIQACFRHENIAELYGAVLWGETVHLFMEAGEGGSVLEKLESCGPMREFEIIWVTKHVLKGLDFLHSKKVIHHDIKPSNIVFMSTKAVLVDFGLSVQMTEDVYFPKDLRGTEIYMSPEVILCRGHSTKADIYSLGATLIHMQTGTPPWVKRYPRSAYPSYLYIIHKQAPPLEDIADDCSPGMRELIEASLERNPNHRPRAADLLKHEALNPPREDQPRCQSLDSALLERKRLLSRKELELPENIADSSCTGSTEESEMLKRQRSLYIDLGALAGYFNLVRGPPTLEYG
T19 sequence (P16591 whole entry): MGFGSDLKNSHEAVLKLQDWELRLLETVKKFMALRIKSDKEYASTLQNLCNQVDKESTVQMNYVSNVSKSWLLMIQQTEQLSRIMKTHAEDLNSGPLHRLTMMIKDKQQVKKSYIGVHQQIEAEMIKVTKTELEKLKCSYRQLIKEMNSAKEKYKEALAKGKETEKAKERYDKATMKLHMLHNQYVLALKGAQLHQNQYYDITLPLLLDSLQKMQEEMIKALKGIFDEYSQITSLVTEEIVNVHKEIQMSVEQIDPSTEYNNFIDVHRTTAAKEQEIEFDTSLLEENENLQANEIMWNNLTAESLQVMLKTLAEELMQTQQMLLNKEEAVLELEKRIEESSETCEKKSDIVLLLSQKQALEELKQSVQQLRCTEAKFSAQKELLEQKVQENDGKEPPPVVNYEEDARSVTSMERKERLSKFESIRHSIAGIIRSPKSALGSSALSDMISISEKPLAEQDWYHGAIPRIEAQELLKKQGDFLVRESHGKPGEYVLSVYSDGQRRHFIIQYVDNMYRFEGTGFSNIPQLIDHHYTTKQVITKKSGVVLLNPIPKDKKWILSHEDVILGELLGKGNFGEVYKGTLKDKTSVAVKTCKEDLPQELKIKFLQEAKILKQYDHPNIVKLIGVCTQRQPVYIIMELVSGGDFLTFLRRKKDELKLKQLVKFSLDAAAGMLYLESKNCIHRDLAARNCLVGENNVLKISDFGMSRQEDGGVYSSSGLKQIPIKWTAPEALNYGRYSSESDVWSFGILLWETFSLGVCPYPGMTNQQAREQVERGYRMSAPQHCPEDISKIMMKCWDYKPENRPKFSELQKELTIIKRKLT
T18 sequence (P41743 whole entry): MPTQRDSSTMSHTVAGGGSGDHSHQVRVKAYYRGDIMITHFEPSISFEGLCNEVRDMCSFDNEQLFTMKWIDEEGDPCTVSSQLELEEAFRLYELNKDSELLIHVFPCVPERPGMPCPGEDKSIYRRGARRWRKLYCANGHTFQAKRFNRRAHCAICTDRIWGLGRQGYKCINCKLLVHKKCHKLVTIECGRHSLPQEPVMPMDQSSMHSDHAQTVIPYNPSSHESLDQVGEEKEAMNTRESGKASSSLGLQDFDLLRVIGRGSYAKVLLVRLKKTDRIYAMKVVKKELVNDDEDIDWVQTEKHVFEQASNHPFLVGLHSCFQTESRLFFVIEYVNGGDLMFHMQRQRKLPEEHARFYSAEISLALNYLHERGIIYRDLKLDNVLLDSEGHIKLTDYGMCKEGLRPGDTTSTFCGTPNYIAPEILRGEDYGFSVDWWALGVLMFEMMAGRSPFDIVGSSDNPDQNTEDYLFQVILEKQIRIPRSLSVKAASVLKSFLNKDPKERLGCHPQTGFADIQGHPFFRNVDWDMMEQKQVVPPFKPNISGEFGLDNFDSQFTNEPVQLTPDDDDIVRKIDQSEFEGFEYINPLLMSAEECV
T3 sequence (P11362 22-822): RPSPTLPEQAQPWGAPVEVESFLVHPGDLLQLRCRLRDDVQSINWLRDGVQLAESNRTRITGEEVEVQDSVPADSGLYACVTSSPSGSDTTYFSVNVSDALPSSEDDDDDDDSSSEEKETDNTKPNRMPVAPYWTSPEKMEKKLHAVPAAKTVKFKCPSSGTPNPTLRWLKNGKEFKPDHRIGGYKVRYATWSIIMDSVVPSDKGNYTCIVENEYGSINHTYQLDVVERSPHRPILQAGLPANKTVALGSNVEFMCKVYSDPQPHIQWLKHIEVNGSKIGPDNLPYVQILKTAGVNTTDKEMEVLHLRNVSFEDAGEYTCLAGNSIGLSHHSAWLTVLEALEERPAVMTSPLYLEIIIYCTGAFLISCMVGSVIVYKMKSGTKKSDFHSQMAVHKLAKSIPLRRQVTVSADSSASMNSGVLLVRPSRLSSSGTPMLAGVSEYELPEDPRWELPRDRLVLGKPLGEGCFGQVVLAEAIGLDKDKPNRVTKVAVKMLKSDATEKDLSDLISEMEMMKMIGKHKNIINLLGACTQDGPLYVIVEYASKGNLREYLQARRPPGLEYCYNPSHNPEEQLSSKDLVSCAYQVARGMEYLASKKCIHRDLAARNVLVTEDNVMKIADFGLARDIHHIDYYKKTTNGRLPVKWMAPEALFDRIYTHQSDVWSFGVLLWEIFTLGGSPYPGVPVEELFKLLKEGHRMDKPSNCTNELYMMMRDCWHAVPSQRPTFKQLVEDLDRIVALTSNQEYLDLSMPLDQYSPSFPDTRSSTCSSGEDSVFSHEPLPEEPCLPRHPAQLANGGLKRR
T32 sequence (P33981 whole entry): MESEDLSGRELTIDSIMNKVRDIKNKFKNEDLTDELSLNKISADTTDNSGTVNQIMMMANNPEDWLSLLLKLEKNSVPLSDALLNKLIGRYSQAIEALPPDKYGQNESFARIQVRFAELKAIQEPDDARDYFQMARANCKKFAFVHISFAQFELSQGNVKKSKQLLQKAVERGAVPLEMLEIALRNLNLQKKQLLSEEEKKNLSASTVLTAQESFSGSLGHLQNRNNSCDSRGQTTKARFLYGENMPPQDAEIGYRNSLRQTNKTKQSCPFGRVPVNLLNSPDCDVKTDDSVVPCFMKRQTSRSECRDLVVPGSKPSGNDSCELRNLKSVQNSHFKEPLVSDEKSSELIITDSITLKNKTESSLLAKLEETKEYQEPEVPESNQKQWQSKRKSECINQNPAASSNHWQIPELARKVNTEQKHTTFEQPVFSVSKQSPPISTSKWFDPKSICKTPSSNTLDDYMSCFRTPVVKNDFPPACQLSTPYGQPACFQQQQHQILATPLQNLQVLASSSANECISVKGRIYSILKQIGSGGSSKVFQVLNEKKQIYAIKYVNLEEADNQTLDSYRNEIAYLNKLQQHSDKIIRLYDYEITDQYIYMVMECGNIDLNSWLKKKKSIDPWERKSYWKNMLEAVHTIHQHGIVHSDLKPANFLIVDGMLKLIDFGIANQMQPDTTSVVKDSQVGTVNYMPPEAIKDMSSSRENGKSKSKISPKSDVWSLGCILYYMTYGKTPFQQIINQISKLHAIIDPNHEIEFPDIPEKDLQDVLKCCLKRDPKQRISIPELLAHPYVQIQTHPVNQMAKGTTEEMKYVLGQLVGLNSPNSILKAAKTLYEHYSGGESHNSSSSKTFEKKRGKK

Row | SMILES | inhibition at 0.1 µM (MAP3K5) [%] | inhibition at 0.1 µM (FLT3) [%] | inhibition at 0.1 µM (FGFR1) [%] | inhibition at 0.1 µM (AURKA) [%] | inhibition at 0.1 µM (EGFR_G719S) [%] | inhibition at 0.1 µM (FLT3_D835Y) [%] | inhibition at 0.1 µM (MINK1) [%] | inhibition at 0.1 µM (WNK3) [%] | inhibition at 0.1 µM (ALK_F1174L) [%] | Kd (ALK4) [nM] | Kd (ALK1) [nM] | Kd (ALK5) [nM] | Kd (ALK3) [nM] | Kd (ALK2) [nM] | inhibition at 0.1 µM (MAP3K8) [%] | inhibition at 0.1 µM (PRKCB1_II) [%] | inhibition at 0.1 µM (PDGFRA_T674I) [%] | inhibition at 0.1 µM (PRKCI) [%] | inhibition at 0.1 µM (FER) [%] | inhibition at 0.1 µM (KDR) [%] | further results
1 | Clc1cc2cc(c1)-c1cnn3ccc(nc13)NCCOCCO2 [OD36] | 13 | 6 | 14 | -7 | 10 | 62 | 5 | 5 | 8 | 3000 | 90 | 3000 | 3000 | 37 | 5 | -5 | -22 | 11 | 6 | 32 | inhibition at 0.1 µM (IRAK1): 9%; inhibition at 0.1 µM (MET): 3%; inhibition at 0.1 µM (EIF2AK1): -4%; inhibition at 0.1 µM (NEK2): 0%; inhibition at 0.1 µM (MAP3K11): 30%; inhibition at 0.1 µM (GRK5): 1%; inhibition at 0.1 µM (STK17A): 23%; inhibition at 0.1 µM (RIPK2): 97%; inhibition at 0.1 µM (PAK6): 1%; inhibition at 0.1 µM (CDK2_cyclinE): 7%; inhibition at 0.1 µM (MAP3K14): 10%; inhibition at 0.1 µM (TTK): 10%; inhibition at 0.1 µM (CSK): -4%; inhibition at 0.1 µM (MARK3): 8%
2 | Cc1cc2cc(c1)-c1cnn3ccc(nc13)NCCNC(=O)CCN(C)C2 [OD52] | -12 | -18 | 5 | -6 | -9 | 4 | -11 | -4 | -6 | 260 | 13 | 850 | 1300 | 9.6 | -10 | -7 | 4 | -17 | -12 | -14 | inhibition at 0.1 µM (IRAK1): 16%; inhibition at 0.1 µM (MET): -5%; inhibition at 0.1 µM (EIF2AK1): 2%; inhibition at 0.1 µM (NEK2): 3%; inhibition at 0.1 µM (MAP3K11): 14%; inhibition at 0.1 µM (GRK5): 2%; inhibition at 0.1 µM (STK17A): 4%; inhibition at 0.1 µM (RIPK2): 61%; inhibition at 0.1 µM (PAK6): 4%; inhibition at 0.1 µM (CDK2_cyclinE): 5%; inhibition at 0.1 µM (MAP3K14): -23%; inhibition at 0.1 µM (TTK): -9%; inhibition at 0.1 µM (CSK): -6%; inhibition at 0.1 µM (MARK3): -1%
